Measurements as given in ChEMBL document CHEMBL1129782, “Azole phenoxy hydroxyureas as selective and orally active inhibitors of 5-lipoxygenase” (J Med Chem, 1996).

species: Homo sapiens; experiment: Inhibition of LTB4 biosynthesis at 1 uM, in calcium ionophore-stimulated human whole blood leukocyte (HBL) assay.; format: functional; conditions: not given

Point of comparison: NC(=O)N(O)Cc1ccc(OCCc2coc(-c3ccccc3)n2)cc1, inhibition at 1 µM 47%. Against it:
- NC(=O)N(O)Cc1ccc(OCc2csc(-c3ccc(Cl)cc3)n2)cc1 — higher, 71%
- NC(=O)N(O)Cc1cccc(OCc2csc(-c3ccc(Cl)cc3)n2)c1 — higher, 68%
- Cc1oc(-c2ccccc2)nc1COc1cccc(CN(O)C(N)=O)c1 — higher, 52%
- NC(=O)N(O)Cc1ccc(OCCc2csc(-c3ccc(C(F)(F)F)cc3)n2)cc1 — higher, 57%
- NC(=O)N(O)Cc1ccc(OCc2csc(-c3ccccc3)n2)cc1 — lower, 44%
- Cc1oc(-c2cccc(F)c2)nc1CCOc1ccc(CN(O)C(N)=O)cc1 — higher, 63%
- NC(=O)N(O)Cc1cccc(OCCc2csc(-c3ccc(C(F)(F)F)cc3)n2)c1 — lower, 30%
- Cc1oc(-c2ccccc2)nc1COc1ccc(CN(O)C(N)=O)cc1Cl — lower, 31%
- NC(=O)N(O)Cc1ccc(OCc2coc(-c3ccc(C(F)(F)F)cc3)n2)cc1 — lower, 32%
- NC(=S)N(O)Cc1ccc(OCc2csc(-c3ccc(Cl)cc3)n2)cc1 — higher, 57%
- Cc1oc(-c2ccc(Cl)cc2)nc1COc1cccc(CN(O)C(N)=O)c1 — higher, 77%
- Cc1oc(-c2ccccc2)nc1CCOc1ccc(CN(O)C(N)=O)cc1 — higher, 55%
- Cc1oc(-c2ccccc2F)nc1CCOc1ccc(CN(O)C(N)=O)cc1 — higher, 54%
- COc1cc(CN(O)C(N)=O)ccc1OCc1nc(-c2ccccc2)oc1C — lower, 19%
- Cc1oc(-c2ccccc2)nc1CCOc1ccc(CN(O)C(N)=O)cc1F — higher, 71%
- NC(=O)N(O)Cc1ccc(OCc2csc(-c3ccc(C(F)(F)F)cc3)n2)cc1 — higher, 56%
- Cc1ccc(-c2nc(CCOc3ccc(CN(O)C(N)=O)cc3)c(C)o2)cc1 — lower, 40%
- Cc1oc(-c2ccccc2)nc1CCOc1ccc(C(C)N(O)C(N)=O)cc1 (stereo unspecified) — lower, 0%
- NC(=S)N(O)Cc1cccc(OCc2coc(-c3ccc(F)cc3)n2)c1 — higher, 61%
- Cc1oc(-c2ccccc2)nc1COc1ccc(CN(O)C(N)=O)cc1F — the same, 47%
- NC(=O)N(O)Cc1ccc(OCc2coc(-c3ccccc3)n2)cc1 — higher, 58%
- CCCCCCc1nc(CCOc2ccc(CN(O)C(N)=O)cc2)c(C)o1 — lower, 44%
- Cc1oc(-c2ccc(C(F)(F)F)cc2)nc1CCOc1ccc(CN(O)C(N)=O)cc1F — lower, 36%

tested on: Rattus norvegicus; experiment: Ex vivo inhibitory activity at an peroral dose of 25 mg/Kg against LTB4 biosynthesis in rat blood, after pretreatment period of 3h; format: functional; conditions: po

Point of comparison: Cc1oc(-c2ccccc2)nc1CCOc1ccc(C(C)N(O)C(N)=O)cc1 (stereo unspecified), inhibition in vivo at 25 mg/kg 57%. Against it:
- Cc1oc(-c2ccccc2)nc1COc1cccc(CN(O)C(N)=O)c1 — higher, 78%
- Cc1oc(-c2ccccc2)nc1CCOc1ccc(CN(O)C(N)=O)cc1 — higher, 79%

tested on: Rattus norvegicus; experiment: Ex vivo inhibitory activity at an peroral dose of 5 mg/Kg against LTB4 biosynthesis in rat blood, after pretreatment period of 6 hr; format: functional; conditions: po

Point of comparison: NC(=O)N(O)Cc1ccc(OCCc2coc(-c3ccccc3)n2)cc1, inhibition in vivo at 5 mg/kg 0%. Against it:
- NC(=O)N(O)Cc1ccc(OCCc2csc(-c3ccc(C(F)(F)F)cc3)n2)cc1 — the same, 0%
- NC(=S)N(O)Cc1ccc(OCc2csc(-c3ccc(Cl)cc3)n2)cc1 — the same, 0%
- Cc1ccc(-c2nc(CCOc3ccc(CN(O)C(N)=O)cc3)c(C)o2)cc1 — the same, 0%
- NC(=O)N(O)Cc1ccc(OCc2coc(-c3ccccc3)n2)cc1 — higher, 60%

target: T1, Polyunsaturated fatty acid 5-lipoxygenase (Rattus norvegicus) (UniProt P12527); experiment: Activity against LTB4 biosynthesis in the rat RPAR pleurisy model po (10 mg/kg); format: functional, organism-based; conditions: not given
T1 sequence (whole entry): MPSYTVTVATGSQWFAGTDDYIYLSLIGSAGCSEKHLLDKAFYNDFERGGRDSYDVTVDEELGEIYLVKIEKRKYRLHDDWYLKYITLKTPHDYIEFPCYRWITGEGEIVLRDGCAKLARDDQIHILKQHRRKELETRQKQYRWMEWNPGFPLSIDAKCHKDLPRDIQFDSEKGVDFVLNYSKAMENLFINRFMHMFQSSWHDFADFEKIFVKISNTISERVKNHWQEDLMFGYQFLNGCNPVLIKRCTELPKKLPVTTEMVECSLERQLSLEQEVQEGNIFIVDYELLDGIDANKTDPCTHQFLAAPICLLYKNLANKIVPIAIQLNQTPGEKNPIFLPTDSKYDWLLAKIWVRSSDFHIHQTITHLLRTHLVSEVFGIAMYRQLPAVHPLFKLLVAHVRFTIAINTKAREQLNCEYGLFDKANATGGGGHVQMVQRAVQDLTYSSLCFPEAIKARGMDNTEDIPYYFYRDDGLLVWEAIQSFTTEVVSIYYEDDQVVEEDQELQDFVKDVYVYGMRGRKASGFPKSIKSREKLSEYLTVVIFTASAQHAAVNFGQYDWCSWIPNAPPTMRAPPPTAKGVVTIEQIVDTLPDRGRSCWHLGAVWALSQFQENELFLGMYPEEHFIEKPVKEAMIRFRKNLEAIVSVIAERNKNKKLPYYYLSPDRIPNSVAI

Point of comparison: NC(=O)N(O)Cc1cccc(OCc2csc(-c3ccc(Cl)cc3)n2)c1, inhibition 0%. Against it:
- Cc1oc(-c2ccccc2)nc1COc1cccc(CN(O)C(N)=O)c1 — higher, 33%
- Cc1oc(-c2ccc(Cl)cc2)nc1COc1cccc(CN(O)C(N)=O)c1 — higher, 47%
- Cc1oc(-c2ccccc2)nc1CCOc1ccc(CN(O)C(N)=O)cc1 — higher, 69%
- NC(=O)N(O)Cc1ccc(OCc2coc(-c3ccccc3)n2)cc1 — higher, 60%

tested on: Rattus norvegicus; experiment: Activity against LTB4 biosynthesis in the rat RPAR pleurisy model po (25 mg/kg); format: functional; conditions: not given

Point of comparison: Cc1oc(-c2ccccc2)nc1CCOc1ccc(CN(O)C(N)=O)cc1F, Inhibition 58%. Against it:
- Cc1oc(-c2ccccc2)nc1COc1cccc(CN(O)C(N)=O)c1 — higher, 79%
- Cc1ccc(-c2nc(CCOc3ccc(CN(O)C(N)=O)cc3)c(C)o2)cc1 — lower, 48%
- Cc1oc(-c2ccccc2)nc1COc1ccc(CN(O)C(N)=O)cc1F — lower, 27%

tested on: Rattus norvegicus; experiment: Ex vivo inhibitory activity at an peroral dose of 1 mg/Kg against LTB4 biosynthesis in rat blood, after pretreatment period of 6 hr; format: functional; conditions: po

For Cc1oc(-c2ccc(C(F)(F)F)cc2)nc1CCOc1ccc(CN(O)C(N)=O)cc1, the inhibition in vivo at 1 mg/kg was 57%.

target: T1, Polyunsaturated fatty acid 5-lipoxygenase (Rattus norvegicus); experiment: Ex vivo inhibitory activity at an peroral dose of 10 mg/Kg against LTB4 biosynthesis in rat blood, after pretreatment period of 3h; format: functional; conditions: not given

Point of comparison: Cc1oc(-c2ccccc2)nc1CCOc1ccc(CN(O)C(N)=O)cc1F, inhibition 52%. Against it:
- Cc1oc(-c2cccc(F)c2)nc1CCOc1ccc(CN(O)C(N)=O)cc1 — higher, 80%
- Cc1oc(-c2ccccc2)nc1COc1ccc(CN(O)C(N)=O)cc1Cl — higher, 69%
- Cc1oc(-c2ccccc2)nc1CCOc1ccc(CN(O)C(N)=O)cc1 — lower, 0%
- Cc1oc(-c2ccccc2F)nc1CCOc1ccc(CN(O)C(N)=O)cc1 — higher, 71%
- Cc1oc(-c2ccc(C(F)(F)F)cc2)nc1CCOc1ccc(CN(O)C(N)=O)cc1 — higher, 67%
- Cc1oc(-c2ccccc2)nc1COc1ccc(CN(O)C(N)=O)cc1F — higher, 66%

target: T1, Polyunsaturated fatty acid 5-lipoxygenase (Rattus norvegicus); experiment: Ex vivo inhibitory activity at an peroral dose of 10 mg/Kg against LTB4 biosynthesis in rat blood, after pretreatment period of 6 hr; format: functional; conditions: not given

Point of comparison: NC(=O)N(O)Cc1ccc(OCc2csc(-c3ccccc3)n2)cc1, inhibition 67%. Against it:
- NC(=O)N(O)Cc1ccc(OCc2csc(-c3ccc(Cl)cc3)n2)cc1 — lower, 0%
- NC(=O)N(O)Cc1cccc(OCc2csc(-c3ccc(Cl)cc3)n2)c1 — lower, 63%
- Cc1oc(-c2ccccc2)nc1COc1cccc(CN(O)C(N)=O)c1 — lower, 0%
- NC(=O)N(O)Cc1cccc(OCCc2csc(-c3ccc(C(F)(F)F)cc3)n2)c1 — lower, 0%
- NC(=O)N(O)Cc1ccc(OCc2coc(-c3ccc(C(F)(F)F)cc3)n2)cc1 — higher, 68%
- Cc1oc(-c2ccc(Cl)cc2)nc1COc1cccc(CN(O)C(N)=O)c1 — lower, 38%
- NC(=O)N(O)Cc1ccc(OCc2csc(-c3ccc(C(F)(F)F)cc3)n2)cc1 — lower, 0%
- NC(=S)N(O)Cc1cccc(OCc2coc(-c3ccc(F)cc3)n2)c1 — lower, 0%

species: Homo sapiens; experiment: Compound at 10 uM was tested in vitro for the inhibition of LTB4 biosynthesis in calcium ionophore-stimulated human whole blood leukocyte (HBL) assay; format: functional; conditions: not given

Point of comparison: COc1cc(CN(O)C(N)=O)ccc1OCc1nc(-c2ccccc2)oc1C, inhibition at 10 µM 81%. Against it:
- Cc1oc(-c2ccccc2)nc1CCOc1ccc(C(C)N(O)C(N)=O)cc1 (stereo unspecified) — lower, 60%

species: Rattus norvegicus; experiment: Oral effective dose against LTB4 biosynthesis in the rat RPAR pleurisy model; format: functional; conditions: not given

Cc1oc(-c2ccc(C(F)(F)F)cc2)nc1CCOc1ccc(CN(O)C(N)=O)cc1 gave an ED50 of 5 mg/kg.
